Common to all, as to type: functional
Holding throughout (conditions): 120 h, read-out: GI

Assay [1] has as its system Echinochloa crus-galli. Briefly: Herbicidal activity against Echinochloa crus-galli (barnyard grass) assessed as inhibition of stalk growth at 10 mg/L using pre-emergence exposure protocol after 5 days.
For assay [2], the system named is Echinochloa crus-galli. Briefly: Herbicidal activity against Echinochloa crus-galli (barnyard grass) assessed as inhibition of root growth at 10 mg/L using pre-emergence exposure protocol after 5 days.
The test system of assay [3] is Echinochloa crus-galli. Briefly: Herbicidal activity against Echinochloa crus-galli (barnyard grass) assessed as inhibition of stalk growth at 100 mg/L using pre-emergence exposure protocol after 5 days.
Assay [4] has as its system Echinochloa crus-galli. Briefly: Herbicidal activity against Echinochloa crus-galli (barnyard grass) assessed as inhibition of root growth at 100 mg/L using pre-emergence exposure protocol after 5 days.
The subject of assay [5] is Brassica napus. Briefly: Herbicidal activity against Brassica napus (oilseed rape) assessed as inhibition of stalk growth at 10 mg/L using pre-emergence exposure protocol after 5 days.
Assay [6] has as its system Brassica napus. Briefly: Herbicidal activity against Brassica napus (oilseed rape) assessed as inhibition of root growth at 10 mg/L using pre-emergence exposure protocol after 5 days.
Assay [7] has as its system Brassica napus. Briefly: Herbicidal activity against Brassica napus (oilseed rape) assessed as inhibition of stalk growth at 100 mg/L using pre-emergence exposure protocol after 5 days.
Assay [8] deals with Brassica napus. Briefly: Herbicidal activity against Brassica napus (oilseed rape) assessed as inhibition of root growth at 100 mg/L using pre-emergence exposure protocol after 5 days.

In the case of `COc1ccc(-c2noc(C)c2-c2csc(C3CCN(C(=O)Nc4ccccc4)CC3)n2)cc1`, the inhibition of growth at 10 µg/mL in assay [1] is -22%; in assay [2] it was 45.7%; in assay [5] it was -22.7%; in assay [6] it was 20.2%. The inhibition of growth at 100 µg/mL was 24.6% in assay [3], 76.1% in assay [4], 4.5% in assay [7] and 43.8% in assay [8].
As to `Cc1onc(-c2ccccc2F)c1-c1csc(C2CCN(C(=O)Nc3ccccc3)CC2)n1`, the inhibition of growth at 10 µg/mL in assay [1] is 17.1%; in assay [2] it was 56.5%; in assay [5] it was 31.8%; in assay [6], 56.2%. Besides, the inhibition of growth at 100 µg/mL in assay [3] amounted to 39%; in assay [4] it was 84.8%; in assay [7], 72.7%; in assay [8], 91.2%.
With `Cc1onc(-c2ccc(F)cc2)c1-c1csc(C2CCN(C(=S)Nc3ccccc3)CC2)n1`, the inhibition of growth at 10 µg/mL in assay [1] is 43.2%; in assay [2], 48.4%; in assay [5], 6.7%; in assay [6], 54.1%. The inhibition of growth at 100 µg/mL in assay [3] was 63.6%; in assay [4] it was 87.1%; in assay [7] it was 53.3%; in assay [8], 90.1%.
For the compound `Cc1onc(-c2ccccc2)c1-c1csc(C2CCN(C(=O)Nc3ccc(F)cc3)CC2)n1`, the inhibition of growth at 10 µg/mL was determined as 0% in assay [1], 54.8% in assay [2], 0% in assay [5] and 66.3% in assay [6]. Also, the inhibition of growth at 100 µg/mL in assay [3] turned out to be 17.7%; in assay [4] it was 87.1%; in assay [7], 31.8%; in assay [8], 85.4%.
For the compound `Cc1onc(-c2ccccc2)c1-c1csc(C2CCN(C(=O)Nc3ccccc3)CC2)n1`, the inhibition of growth at 10 µg/mL in assay [1] was determined as 52.3%; in assay [2] it was 52%; in assay [5], 30%; in assay [6] it was 51.4%. Besides, the inhibition of growth at 100 µg/mL was found to be 63.6% in assay [3], 78.3% in assay [4], 70% in assay [7] and 80.4% in assay [8].
Turning to `Cc1onc(-c2ccc(F)cc2)c1-c1csc(C2CCN(C(=O)Nc3ccccc3)CC2)n1`, the inhibition of growth at 10 µg/mL in assay [1] was determined as 39.1%; in assay [2], 65.9%; in assay [5], 25%; in assay [6] it was 46.9%. Further, the inhibition of growth at 100 µg/mL in assay [3] was 56.5%; in assay [4], 95.5%; in assay [7] it was 53.6%; in assay [8], 83.3%.
As to `Cc1onc(-c2ccccc2F)c1-c1csc(C2CCN(C(=O)Nc3ccc(F)cc3)CC2)n1`, the inhibition of growth at 10 µg/mL in assay [1] was found to be 56.8%; in assay [2], 64.5%; in assay [5] it was 16.7%; in assay [6], 52.3%. Besides, the inhibition of growth at 100 µg/mL in assay [3] worked out at 63.6%; in assay [4], 80.6%; in assay [7], 66.7%; in assay [8], 96.6%.
Turning to `COc1ccc(-c2noc(C)c2-c2csc(C3CCN(C(=O)Nc4ccc(F)cc4)CC3)n2)cc1`, the inhibition of growth at 10 µg/mL in assay [1] stood at 34.8%; in assay [2], 59.1%; in assay [5], 14.3%; in assay [6], 46.9%. The inhibition of growth at 100 µg/mL in assay [3] turned out to be 37%; in assay [4] it was 86.4%; in assay [7], 53.6%; in assay [8] it was 81.3%.
Consider `Cc1onc(-c2ccc(F)cc2)c1-c1csc(C2CCN(C(=O)NC(C)C)CC2)n1`, for which the inhibition of growth at 10 µg/mL in assay [1] amounted to 47.7%; in assay [2], 54.8%; in assay [5], 46.7%; in assay [6], 68.8%. In addition, the inhibition of growth at 100 µg/mL came out at 63.6% in assay [3], 83.9% in assay [4], 66.7% in assay [7] and 87.2% in assay [8].
Turning to `CCCCNC(=O)N1CCC(c2nc(-c3c(-c4ccc(F)cc4)noc3C)cs2)CC1`, the inhibition of growth at 10 µg/mL in assay [1] is 56.8%; in assay [2], 71%; in assay [5], 40%; in assay [6], 67.8%. Besides, the inhibition of growth at 100 µg/mL in assay [3] was determined as 63.6%; in assay [4], 87.1%; in assay [7] it was 70%; in assay [8], 88.1%.
As to `Cc1onc(-c2ccccc2F)c1-c1csc(C2CCN(C(=S)Nc3ccccc3)CC2)n1`, the inhibition of growth at 10 µg/mL in assay [1] was determined as 45.5%; in assay [2], 48.4%; in assay [5] it was 43.3%; in assay [6], 64.2%. Moreover, the inhibition of growth at 100 µg/mL in assay [3] came to 59.1%; in assay [4], 83.9%; in assay [7] it was 60%; in assay [8], 92.7%.
As to `Cc1onc(-c2ccccc2F)c1-c1csc(C2CCN(C(=O)NC(C)C)CC2)n1`, the inhibition of growth at 10 µg/mL in assay [1] was 22%; in assay [2], 56.5%; in assay [5] it was 22.7%; in assay [6] it was 68.5%. For the same compound, the inhibition of growth at 100 µg/mL stood at 14.6% in assay [3], 73.9% in assay [4], 54.5% in assay [7] and 83.1% in assay [8].
Turning to `Cc1onc(-c2ccc(Cl)cc2Cl)c1-c1csc(C2CCN(C(=O)Nc3ccc(F)cc3)CC2)n1`, the inhibition of growth at 10 µg/mL was determined as 45.5% in assay [1], 32.3% in assay [2], 20.2% in assay [5] and 34.9% in assay [6]. For the same compound, the inhibition of growth at 100 µg/mL in assay [3] was determined as 63.6%; in assay [4], 83.8%; in assay [7], 70%; in assay [8], 90.3%.
As to `Cc1onc(-c2ccc(F)cc2)c1-c1csc(C2CCN(C(=O)Nc3ccc(F)cc3)CC2)n1`, the inhibition of growth at 10 µg/mL in assay [1] came to 50%; in assay [2], 35.5%; in assay [5], 6.7%; in assay [6], 35.8%. Also, the inhibition of growth at 100 µg/mL in assay [3] worked out at 52.3%; in assay [4], 74.2%; in assay [7] it was 56.7%; in assay [8] it was 76.1%.
For the compound `CCCCNC(=O)N1CCC(c2nc(-c3c(-c4ccccc4F)noc3C)cs2)CC1`, the inhibition of growth at 10 µg/mL in assay [1] was determined as 61.4%; in assay [2] it was 58.1%; in assay [5], 43.3%; in assay [6] it was 61.5%. Also, the inhibition of growth at 100 µg/mL is 63.6% in assay [3], 90.3% in assay [4], 70% in assay [7] and 86.2% in assay [8].

The record behind these values is ChEMBL document CHEMBL3046673, “Synthesis and herbicidal activities of novel 4-(4-(5-methyl-3-arylisoxazol-4-yl)thiazol-2-yl)piperidyl carboxamides and thiocarboxamides” (Molecules, 2009).
